Measurements reported in patent US8143393B2, “Substituted 4-amino-pyrrolotriazine derivatives useful for treating hyper-proliferative disorders and diseases associated with angiogenesis” (Bayer HealthCare LLC, priority 2005, dated 2012).

What was measured:
FGFR-1 = biological target: T1, FGFR-1 (Homo sapiens, UniProt P11362); experiment: FGFR-1 TR-FRET biochemical assay
T1 construct: GST; made in house
In short: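 In this LANCE time-resolved FRET format, compounds at final 10 μM–0.128 nM (1% DMSO, 1:5 series) were preincubated before enzyme start. Reactions ran for one hour at room temperature with 0.6 uM ATP, 25 nM biotinylated poly GT and 5 nM GST-tagged FGFR1. Inhibition was calculated from the 665/615 nm ratio minus the ATP-free background.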

[1] = tested on: histone 3 phosphorylation in colon carcinoma (HCT116); experiment: p-Histone3 assay; assay type: cell-based; conditions: Homo sapiens, HCT-116, 24 h, HCT116, 24 h treatment
Experimental: Compounds were assayed for the inhibition of histone 3 phosphorylation in colon carcinoma (HCT116). Briefly, 20,000 cells/well were seeded in a 96-well black-walled, poly-d-lysine plates in RPMI+10% FBS and incubated at 37° C. in 5% CO2 overnight. The following day, the cells were treated with compounds for 24 hours at 37° C. Following compound treatment; plates were centrifuged at 1000 rpm for 2 minutes and washed twice with 100 μl of cold sterile TBS. Cells were then fixed with cold 3.7% formaldehyde in TBS (4° C. for 1 hour) and then permeabolized with 0.1% Triton-X-100 in TBS (room temperature for 30 minutes). Plates were then washed with of 0.25% BSA-TBS and blocked with BSA solution for 1 hour at room temperature while shaking. The supernatant was removed and replaced with diluted primary antibody (anti-phospho-histone 3, serine 10, Cell Signaling) at 1:250 in 0.25% BSA-TBS and incubated overnight at 4° C. The plates were washed and treated with diluted secondary antibody (anti-rabbit Eu-labeled) at 1:10000 in 0.25% BSA-TBS (room temperature for 1 hour). The antibody solution was removed from each well and washed eight times. The wash buffer was replaced with 50 μl pre-warmed enhancement solution and mixed on the orbital shaker for 10 minutes. Fluorescence was detected with a Victor V Fluorescence Detector. The data are expressed as percent inhibition: % inhibition=100−((Signal with inhibitor−background)/(Signal without inhibitor−background))−100.

[2] = 0.6 uM ATP, 5 nM FGFR1-GST, bounds given in nM
[3] = lower bound of the bin 'greater than 500 nM but less than 5 μM'
[4] = upper bound of the bin 'greater than 100 nM but less than 1 μM' (lower bound in E1)

T1 sequence (P11362 22-822): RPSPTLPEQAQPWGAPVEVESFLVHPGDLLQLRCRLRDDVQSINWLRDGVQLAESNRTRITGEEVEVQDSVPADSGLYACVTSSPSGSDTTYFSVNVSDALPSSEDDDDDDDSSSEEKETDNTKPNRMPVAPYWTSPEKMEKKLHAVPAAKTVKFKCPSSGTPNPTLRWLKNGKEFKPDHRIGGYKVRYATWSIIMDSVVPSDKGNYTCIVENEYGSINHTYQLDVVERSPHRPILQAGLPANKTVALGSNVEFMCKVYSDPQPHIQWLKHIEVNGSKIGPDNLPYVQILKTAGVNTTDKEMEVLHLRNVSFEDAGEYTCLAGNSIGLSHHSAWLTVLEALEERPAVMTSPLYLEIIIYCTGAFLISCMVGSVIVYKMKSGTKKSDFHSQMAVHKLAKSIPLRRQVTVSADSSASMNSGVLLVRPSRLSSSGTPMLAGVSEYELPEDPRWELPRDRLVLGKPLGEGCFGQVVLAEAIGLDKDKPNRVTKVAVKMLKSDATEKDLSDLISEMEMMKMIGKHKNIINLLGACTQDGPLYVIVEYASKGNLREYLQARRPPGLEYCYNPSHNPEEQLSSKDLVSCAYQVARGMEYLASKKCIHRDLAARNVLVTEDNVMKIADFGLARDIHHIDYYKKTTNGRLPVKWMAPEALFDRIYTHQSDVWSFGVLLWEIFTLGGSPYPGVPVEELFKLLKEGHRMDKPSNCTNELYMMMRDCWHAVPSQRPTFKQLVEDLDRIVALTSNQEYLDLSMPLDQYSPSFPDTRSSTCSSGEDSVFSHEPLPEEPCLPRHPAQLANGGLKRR

Structure (SMILES)	IC50 (FGFR-1; [2])	IC50 ([1]; bounds given in μM)	IC50 [1, 3]	IC50 (FGFR-1; [4])
Nc1ncnn2c(CN3CCOCC3)cc(-c3ccc(NC(=O)Nc4cccc(C(F)(F)F)c4)c(F)c3)c12 [Example 10, N-{4-[4-amino-7-(morpholin-4-ylmethyl)pyrrolo[2,1-f][1,2,4]triazin-5-yl]-2-fluorophenyl}-N′-[3-(trifluoromethyl)phenyl]urea]	< 10 nM	< 5 µM	> 0.5 µM	
Nc1ncnn2c(CN3CCOCC3)cc(-c3cc(F)c(NC(=O)Nc4cc(C(F)(F)F)ccc4F)cc3F)c12 [Example 15, N-{4-[4-amino-7-(morpholin-4-ylmethyl)pyrrolo[2,1-f][1,2,4]triazin-5-yl]-2,5-difluorophenyl}-N′-[2-fluoro-5-(trifluoromethyl)phenyl]urea]	< 10 nM	< 5 µM	> 0.5 µM	
Cc1ccc(F)c(NC(=O)Nc2ccc(-c3cc(CN4CCOCC4)n4ncnc(N)c34)cc2)c1 [Example 46, N-{4-[4-amino-7-(morpholin-4-ylmethyl)pyrrolo[2,1-f][1,2,4]triazin-5-yl]phenyl}-N′-(2-fluoro-5-methylphenyl)urea]		5 to 10 µM		
Nc1ncnn2c(CN3CCOCC3)cc(-c3ccc(NC(=O)Nc4ccc(C(F)(F)F)cn4)cc3)c12 [Example 56, N-{4-[4-amino-7-(morpholin-4-ylmethyl)pyrrolo[2,1-f][1,2,4]-triazin-5-yl]phenyl}-N′-[5-(trifluoromethyl)pyridin-2-yl]urea]		5 to 10 µM		
COc1cccc(NC(=O)Nc2ccc(-c3cc(CN4CCOCC4)n4ncnc(N)c34)cc2F)n1 [Example 72, N-4-[4-amino-7-(morpholin-4-ylmethyl)pyrrolo[2,1-f][1,2,4]triazin-5-yl]-2-fluorophenyl-N′-(6-methoxypyridin-2-yl)urea]		5 to 10 µM		
Nc1ncnn2c(CN3CCOCC3)cc(-c3ccc(NC(=O)Nc4cccc(Br)n4)c(F)c3)c12 [Example 73, N-4-[4-amino-7-(morpholin-4-ylmethyl)pyrrolo[2,1-f][1,2,4]-triazin-5-yl]-2-fluorophenyl-N′-(6-bromopyridin-2-yl)urea]		5 to 10 µM		
CC(=O)N1CCN(Cc2cc(-c3ccc(NC(=O)Nc4cc(C(F)(F)F)ccc4F)cc3)c3c(N)ncnn23)CC1 [Example 87, N-(4-{7-[(4-acetylpiperazin-1-yl)methyl]-4-aminopyrrolo[2,1-f][1,2,4]triazin-5-yl}phenyl)-N′-[2-fluoro-5-(trifluoromethyl)phenyl]urea]		< 5 µM	> 0.5 µM	
Nc1ncnn2c(CN3CCNCC3)cc(-c3ccc(NC(=O)Nc4cccc(Br)n4)cc3)c12 [Example 91, N-4-[4-amino-7-(piperazin-1-ylmethyl)pyrrolo[2,1-f][1,2,4]-triazin-5-yl]phenyl-N′-(6-bromopyridin-2-yl)urea]		< 5 µM	> 0.5 µM	
CC(=O)N1CCN(Cc2cc(-c3ccc(NC(=O)Nc4cccc(Br)n4)cc3)c3c(N)ncnn23)CC1 [Example 93, N-(4-7-[(4-acetylpiperazin-1-yl)methyl]-4-aminopyrrolo[2,1-f][1,2,4]triazin-5-ylphenyl)-N′-(6-bromopyridin-2-yl)urea]		< 5 µM	> 0.5 µM	
CS(=O)(=O)N1CCN(Cc2cc(-c3ccc(NC(=O)Nc4cccc(Br)n4)cc3)c3c(N)ncnn23)CC1 [Example 94, N-[4-(4-amino-7-[4-(methylsulfonyl)piperazin-1-yl]methylpyrrolo[2,1-f][1,2,4]triazin-5-yl)phenyl]-N′-(6-bromopyridin-2-yl)urea]		< 5 µM	> 0.5 µM	
Nc1ncnn2c(CO)cc(-c3ccc(NC(=O)Nc4cccc(C(F)(F)F)n4)cc3)c12 [Example 105, N-{4-[4-amino-7-(hydroxymethyl)pyrrolo[2,1-f][1,2,4]triazin-5-yl]phenyl}-N′-[6-(trifluoromethyl)pyridin-2-yl]urea]		< 5 µM	> 0.5 µM	
Nc1ncnn2c(C(O)CO)cc(-c3ccc(NC(=O)Nc4cc(C(F)(F)F)ccc4F)c(F)c3)c12 (centres unmarked) [Example 254, N-{4-[4-amino-7-(1,2-dihydroxyethyl)pyrrolo[2,1-f][1,2,4]triazin-5-yl]-2-fluorophenyl}-N′-[2-fluoro-5-(trifluoromethyl)phenyl]urea]	> 100 nM			< 1000 nM
Nc1ncnn2c(C(O)C(O)CO)cc(-c3ccc(NC(=O)Nc4cc(C(F)(F)F)ccc4F)c(F)c3)c12 (centres unmarked) [Example 255, N-{4-[4-amino-7-(1,2,3-trihydroxypropyl)pyrrolo[2,1-f][1,2,4]triazin-5-yl]-2-flourophenyl}-N′-[2-fluoro-5-(trifluoromethyl)phenyl]urea]	10 to 100 nM			
CC(=O)c1cc(-c2ccc(NC(=O)Nc3cc(C(F)(F)F)ccn3)c(F)c2)c2c(N)ncnn12 [Example 259, N-[4-(7-acetyl-4-aminopyrrolo[2,1-f][1,2,4]triazin-5-yl)-2-fluorophenyl]-N′-[4-(trifluoromethyl)pyridin-2-yl]urea]	< 10 nM			
Nc1ncnn2c(C(=O)COCCN3CCOCC3)cc(-c3ccc(NC(=O)Nc4cc(C(F)(F)F)ccc4F)c(F)c3)c12 [Example 260, N-(4-{4-amino-7-[(2-morpholin-4-ylethoxy)acetyl]pyrrolo[2,1-f][1,2,4]triazin-5-yl}-2-fluorophenyl)-N′-[2-fluoro-5-(trifluoromethyl)phenyl]urea]	> 100 nM			< 1000 nM
Nc1ncnn2c(CN3CCOCC3)cc(-c3ccc(NC(=O)Nc4cccc(C(F)(F)F)c4)c(C(F)(F)F)c3)c12 [Example 269, N-[4-[4-amino-7-(morpholin-4-ylmethyl)pyrrolo[2,1-f][1,2,4]triazin-5-yl]-2-(trifluoromethyl)phenyl]-N′-[3-(trifluoromethyl)phenyl]urea]	< 10 nM			
Nc1ncnn2c(-c3cnco3)cc(-c3ccc(NC(=O)Nc4cc(C(F)(F)F)ccn4)c(F)c3)c12 [Example 273, N-{4-[4-amino-7-(1,3-oxazol-5-yl)pyrrolo[2,1-f][1,2,4]triazin-5-yl]-2fluorophenyl}-N′-[4-(trifluoromethyl)pyridin-2-yl]urea]	10 to 100 nM			
Nc1ncnn2c(CC3CNCCO3)cc(-c3ccc(NC(=O)Nc4cc(C(F)(F)F)ccc4F)c(F)c3)c12 (centres unmarked) [Example 276, N-{4-[4-amino-7-(morpholin-2-ylmethyl)pyrrolo[2,1-f][1,2,4]triazin-5-yl]-2-fluorophenyl}-N′-[2-fluoro-5-(trifluoromethyl)phenyl]urea]	10 to 100 nM			
Nc1ncnn2c(C(=O)NCC3CNCCO3)cc(-c3ccc(NC(=O)Nc4cc(C(F)(F)F)ccc4F)c(F)c3)c12 (centres unmarked) [Example 283, 4-amino-5-{3-fluoro-4-[({[2-fluoro-5-(trifluoromethyl)-phenyl]amino}carbonyl)amino]phenyl}-N-(morpholin-2-ylmethyl)pyrrolo[2,1-f][1,2,4]triazine-7-carboxamide]	10 to 100 nM			
COC[C@H]1CCCN1C(=O)c1cc(-c2ccc(NC(=O)Nc3cc(C(F)(F)F)ccc3F)c(F)c2)c2c(N)ncnn12 [Example 284, N-[4-(4-amino-7-{[2-(methoxymethyl)pyrrolidin-1-yl]carbonyl}pyrrolo[2,1-f][1,2,4]triazin-5-yl)-2-fluorophenyl]-N′-[2-fluoro-5-(trifluoromethyl)phenyl]urea]	10 to 100 nM			
Nc1ncnn2c(CN3CCOCC3)cc(-c3ccc(NC(=O)Nc4cc(C(F)(F)F)cc[n+]4[O-])c(F)c3)c12 [Example 287, N-{4-[4-amino-7-(morpholin-4-ylmethyl)pyrrolo[2,1-f][1,2,4]triazin-5-yl]-2-fluorophenyl}-N′-[1-oxido-4-(trifluoromethyl)pyridin-2-yl]urea]	< 10 nM			
Nc1ncnn2c(C(=O)C3CNCCO3)cc(-c3ccc(NC(=O)Nc4cc(C(F)(F)F)ccc4F)c(F)c3)c12 (centres unmarked) [Example 289, N-{4-[4-amino-7-(morpholin-2-ylcarbonyl)pyrrolo[2,1-f][1,2,4]triazin-5-yl]-2-fluorophenyl}-N′-[2-fluoro-5-(trifluoromethyl)phenyl]urea]	10 to 100 nM			
Nc1ncnn2c(C(=O)NCC3CNCCO3)cc(-c3ccc(NC(=O)Nc4cccc(C(F)(F)F)c4)c(F)c3)c12 (centres unmarked) [Example 293, 4-amino-5-{3-fluoro-4-[({[3-(trifluoromethyl)phenyl]-amino}carbonyl)amino]phenyl}-N-(morpholin-2-ylmethyl)pyrrolo[2,1-f][1,2,4]-triazine-7-carboxamide]	10 to 100 nM			
Nc1ncnn2c(CC3CNCCO3)cc(-c3ccc(NC(=O)Nc4cccc(C(F)(F)F)c4)c(F)c3)c12 (centres unmarked) [Example 301, N-{4-[4-amino-7-(morpholin-2-ylmethyl)pyrrolo[2,1-f][1,2,4]triazin-5-yl]-2-fluorophenyl}-N′-[3-(trifluoromethyl)phenyl]urea]	10 to 100 nM			
